Measurements: patent US20240002379A1, “ASYMMETRIC CONJUGATE COMPOUNDS” (Pheon Therapeutics Ltd., priority 2016, published 2024)
“Also recorded” adds a separate entry of the source. Like-named read-outs stand apart in the source and are kept apart here.

Assays:
[1] = test system: FaDu (head and neck cancer) cell line; assay: MTT cytotoxicity assay, FaDu; format: cell-based; conditions: Homo sapiens, read-out: Cytotoxicity FaDu (nM, 72 hour)
Method: (§1) Tumor cell lines were maintained in RPMI1640 medium supplemented with 10% heat-inactivated fetal bovine serum, 2 mM L-glutamine and 1 mM sodium pyruvate. 1800 cells per well were seeded in a volume of 180 μl in a 96-well flat bottom polystyrene plate. The cells were allowed to adhere overnight at 37° C. in a CO2 incubator. Ligands were initially formulated in DMSO, and stocks stored at −80° C. They were then further formulated at lox concentration in RPMI1640 medium. 20 ul of diluted samples were added into each treatment well. On each plate, blank wells with no cells, and untreated wells containing cells, were included. Plates were then cultured at 37° C. in a CO2 incubator for 72 hrs. Cytotoxicity was evaluated using a tetrazolium salt-based assay, the MTT assay. After 72 hours, the supernatant was removed from each well and 200 μl of a sterile filtered 500 μg/ml MTT solution in water added to each well. The plates were then incubated at 37° C. in a CO2 incubator for 4 hrs. The supernatant was then removed and the formazan crystals formed solubilized by adding 150 μl of DMSO to each well. The plate was then read on a plate reader at 540 nm, and percentage cell survival calculated as follows: ((mean absorbance treated wells at concentration x−mean absorbance blank wells)[…](mean absorbance untreated wells at concentration x−mean absorbance blank wells))×100. Data were plotted as concentration in nM vs. % cell survival in Microsoft Excel, and IC50 values (concentration where cell survival is reduced by a half) were determined from the graph.

PC3 (prostate) cell line = assay: MTT cytotoxicity assay, PC3; format: cell-based; conditions: read-out: Cytotoxicity PC3 (nM, 72 hour)
Method: as §1

[2] = test system: three fluorescently labelled DNA sequences shown in FIG. 17; assay: FRET DNA melting, the three DNA sequences shown in FIG. 17 together; format: binding; conditions: for effect on melting temperature / DNA stabilisation: different concentrations, all three sequences, vs control DNA
Excerpt: Further FRET DNA melting studies were undertaken on a number of molecules using three fluorescently labelled sequences. The sequences (FIG. 17) were designed to provide additional evidence that the series can form inter- and intrastrand cross-links. Inosines were inserted in place of traditional DNA bases in some cases to limit the number of binding sites available for the compounds to interact with. The short duplexes used in this FRET study are relatively unstable in the duplex form with a melting temperature below 30° C. so that, in the absence of ligand, a large part of the melting occurs below the starting temperature of the experiment. […] Increasing concentrations of 13 cause a greater amount of the melting transition to appear at the higher temperature (i.e. a greater number of the DNA molecules are cross-linked). A greater effect for 5′-AIIAGAITTTI′-3′ can be observed at lower concentrations of 13.
Oligonucleotides were obtained from ATDbio (Southampton, UK) in lyophilised form. They were labelled with a fluorophore molecule (F=fluorescein) at the 5′-end and a quencher molecule (Q=dabcyl) at the 3′-end of the complementary strand. Each oligonucleotide was dissolved in distilled H2O to form stock solutions of 100 PM. Working solutions of 5 μM were prepared by diluting the stock solution with distilled H2O.
The following buffers were used: 250 mM phosphate buffer pH 7.4 (consisting of sodium dihydrogen phosphate and sodium phosphate diluted in distilled H2O) and 5 M sodium chloride buffer. A11 buffers and distilled H2O were filtered through a […] filter prior to use.
For the FRET experiments a stock solutions were prepared by dissolving compound (such as compound 13) in DMSO to give a concentration of 10 mM. From this stock solution, working solutions of the desired concentration were prepared by diluting the stock solution with distilled H2O.
The reaction mixture was comprised of 4 μL of 250 mM phosphate buffer (final concentration of 50 mM), 4 μL flourophor and 4 μL quencher molecule of the appropriate oligonucleotide for a final concentration of 0.2 PM, 4 μL 5 M sodium chloride (final concentration of 1 M NaCl), and 4 μL of distilled H2O. This mixture was heated in an Eppendorf tube at 90° C. for 1 min and slowly cooled down to room temperature. This process was carried out to anneal the single strands to double-stranded DNA. Following this, 4 μL of the ligand was added in the desired concentration and the mixture incubated overnight either at room temperature or 4° C. A control sample of DNA only was prepared by mixing 4 μL 250 mM phosphate buffer (final concentration of 50 mM) with 4 μL fluorophore-labelled and 4 μL quencher-labelled oligonucleotides (of the appropriate sequence) to give a final concentration of 0.2 PM, 4 μL 5 M sodium chloride (final concentration of 1 M NaCl) and 4 μL distilled H2O. This mixture was analysed without prior annealing.
Fluorescence melting profiles were measured using a Roche LightCycler using a total reaction volume of 20 μL. Initially, the samples were denatured by heating to 95° C. at a rate of 1° C. min^−1. The samples were then maintained at 95° C. for 5 min before annealing by cooling to 25° C. at 1° C. min^−1. The samples were then held at 25° C. for a further 5 min and finally melted by heating to 95° C. at 1° C. min^−1. Annealing steps and melting steps were all recorded and changes in fluorescence were measured at 520 nm.
Tm values were obtained from the first derivates of the melting profiles using the Roche LightCycler software.

[3] = test system: LIM1215 cell line (gastric); assay: MTT cytotoxicity assay, LIM1215; format: cell-based; conditions: MTT assay, 72 hour incubation, read-out: Cytotoxicity LIM1215 (72 hours)
Method: as §1

SW48 cell line (gastric) = assay: MTT cytotoxicity assay, SW48; format: cell-based; conditions: MTT assay, 72 hour incubation
Method: as §1

[4] = test system: SW620 cell line (gastric); assay: MTT cytotoxicity assay, SW620; format: cell-based; conditions: MTT assay, 72 hour incubation, read-out: Cytotoxicity SW620 (72 hours)
Method: as §1

[5] = Homo sapiens, SW48, read-out: Cytotoxicity SW48 (72 hrs)

Row | SMILES | effect on melting temperature / DNA stabilisation [2] | IC50 ([3]; LIM1215) [nM] | IC50 (SW48 cell line (gastric); [5]) [nM] | IC50 ([4]; Homo sapiens, SW-620) [nM] | further results
1 | COc1cc2c(cc1OCCCC(=O)N1C[C@@H](CCl)c3c1cc(OC(=O)N1CCN(C)CC1)c1ccccc31)N=C[C@@H]1CCCCN1C2=O [Compound 55, (S)-1-(Chloromethyl)-3-(4-(((S)-2-methoxy-12-oxo-6a,7,8,9,10, 12-hexahydrobenzo[e]pyrido[1,2-a][1,4]diazepin-3-yl)oxy)butanoyl)-2,3-dihydro-1H-benzo[e]indol-5-yl 4-methylpiperazine-1-carboxylate] |  |  |  |  | IC50 ([1]; 72 h): 1.5 nM; IC50 (PC3 (prostate) cell line; 72 h): 0.02 nM
2 | COc1cc2c(cc1OCCCC(=O)N1C[C@@H](CCl)c3c1cc(O)c1ccccc31)NC(=O)[C@@H]1CCCCN1C2=O [Compound 149, (S)-3-(4-((S)-1-(Chloromethyl)-5-hydroxy-1,2-dihydro-3H-benzo[e]indol-3-yl)-4-oxobutoxy)-2-methoxy-7,8,9,10-tetrahydrobenzo[e]-pyrido[1,2-a][1,4]diazepine-6,12(5H,6aH)-dione] | limited increase |  |  |  | 
3 | COc1cc2c(cc1OCCCC(=O)N1C[C@@H](CCl)c3c1cc(OC(=O)N1CCN(C)CC1)c1ccccc31)N=C[C@@H]1Cc3ccccc3CN1C2=O [Compound 61, (S)-1-(Chloromethyl)-3-(4-(((S)-2-methoxy-14-oxo-6a,7,12,14-tetrahydrobenzo[5,6][1,4]diazepino[1,2-b]isoquinolin-3-yl)oxy)butanoyl)-2,3-dihydro-1H-benzo[e]indol-5-yl 4-methylpiperazine-1-carboxylate] |  |  |  |  | IC50 ([1]; 72 h): > 10 nM; IC50 (PC3 (prostate) cell line; 72 h): > 10 nM
4 | COc1cc2c(cc1OCCCC(=O)N1C[C@@H](CCl)c3c1cc(OC(=O)N1CCN(C)CC1)c1ccccc31)NC(=O)[C@@H]1CCCCN1C2=O [Compound 150, (S)-1-(Chloromethyl)-3-(4-(((S)-2-methoxy-6,12-dioxo-5,6,6a,7,8,9,10,12-octahydrobenzo[e]pyrido[1,2-a][1,4]diazepin-3-yl)oxy)butanoyl)-2,3-dihydro-1H-benzo[e]indol-5-yl 4-methylpiperazine-1-carboxylate] | negligible DNA stabilisation; also recorded: do not increase |  |  |  | 
5 | COc1cc2c(cc1OCc1c(C(=O)N3C[C@@H](CCl)c4c3cc(O)c3ccccc43)sc3ccccc13)N=C[C@@H]1CCCCN1C2=O [Compound 91, (S)-3-((2-((S)-1-(Chloromethyl)-5-hydroxy-2,3-dihydro-1H-benzo[e]indole-3-carbonyl)benzo[b]thiophen-3-yl)methoxy)-2-methoxy-7,8,9,10-tetrahydrobenzo[e]pyrido[1,2-a][1,4]diazepin-12(6aH)-one] |  | 2210 | 2320 | 2610 | 
6 | COc1cc2c(cc1OCCCC(=O)N1C[C@@H](C)c3c1cc(O)c1ccccc31)N=C[C@@H]1CCCCN1C2=O [Compound 152, (S)-3-(4-((S)—S-Hydroxy-1-methyl-1,2-dihydro-3H-benzo[e]indol-3-yl)-4-oxobutoxy)-2-methoxy-7,8,9,10-tetrahydrobenzo[e]pyrido[1,2-a][1,4]diazepin-12(6aH)-one] | limited increase |  |  |  | ΔTm compared to the active G-A cross-linker 42 ([2]; three sequences of FIG. 17): large decrease in the ΔTm value
7 | COc1cc2c(cc1OCCCC(=O)N1C[C@@H](CCl)c3c1cc(O)c1ccccc31)N=C[C@@H]1Cc3ccccc3CN1C2=O [Compound 53, (S)-3-(4-((S)-1-(Chloromethyl)-5-hydroxy-1,2-dihydro-3H-benzo[e]indol-3-yl)-4-oxobutoxy)-2-methoxy-7,12-dihydrobenzo[5,6][1,4]-diazepino[1,2-b]isoquinolin-14(6aH)-one] |  |  |  |  | IC50 ([1]; MTT assay, 72 hour incubation): 0.65 nM; IC50 (PC3 (prostate) cell line; MTT assay, 72 hour incubation): 0.02 nM
8 | COc1cc2c(cc1OCc1cccc(CC(=O)N3C[C@@H](CCl)c4c3cc(O)c3ccccc43)c1)NC(=O)[C@@H]1CCCCN1C2=O [Compound 139, (S)-3-((3-(2-((S)-1-(Chloromethyl)-5-hydroxy-1,2-dihydro-3H-benzo[e]indol-3-yl)-2-oxoethyl)benzyl)oxy)-2-methoxy-7,8,9,10-tetrahydrobenzo[e]pyrido[1,2-a][1,4]diazepine-6,12(5H,6aH)-dione] |  | 12 | 0.95 | 13.5 | 
9 | COc1cc2c(cc1OCc1cccc(CC(=O)N3C[C@@H](C)c4c3cc(O)c3ccccc43)c1)N=C[C@@H]1CCCCN1C2=O [Compound 145, (S)-3-((3-(2-((S)-5-Hydroxy-1-methyl-1,2-dihydro-3H-benzo[e]indol-3-yl)-2-oxoethyl)benzyl)oxy)-2-methoxy-7,8,9,10-tetrahydrobenzo[e]pyrido[1,2-a][1,4]diazepin-12(6aH)-one] |  | 137 | 32.1 | 350 | 
10 | COc1cc2c(cc1OCc1cccc(CC(=O)N3C[C@@H](CCl)c4c3cc(O)c3ccccc43)c1)N=C[C@@H]1Cc3ccccc3CN1C2=O [Compound 108, (S)-3-((3-(2-((S)-1-(Chloromethyl)-5-hydroxy-1,2-dihydro-3H-benzo[e]indol-3-yl)-2-oxoethyl)benzyl)oxy)-2-methoxy-7,12-dihydrobenzo[5,6][1,4]diazepino[1,2-b]isoquinolin-14(6aH)-one] |  | 0.78 |  | 0.045 | IC50 (SW48 cell line (gastric); Homo sapiens, SW48, read-out: IC50 value in SW48): 0.004 nM
11 | CC(C)(C)OC(=O)N1C[C@@H](CCl)c2c1cc(O)c1ccccc21 [Compound 10, tert-Butyl (S)-1-(chloromethyl)-5-hydroxy-1,2-dihydro-3H-benzo[e]indole-3-carboxylate] |  | 1270 | 2920 | 2000 | 
12 | CC(C)(C)OC(=O)N1CC2CC23C1=CC(=O)c1ccccc13 [Compound 83, tert-Butyl (8bR,9aS)-4-oxo-9,9a-dihydro-1H-benzo[e]cyclopropa[c]indole-2(4H)-carboxylate] | do not increase |  |  |  | degree of DNA stabilisation ([2]; middle sequence and bottom sequence in FIG. 17 (both AT-rich)): very small degree of stabilisation; IC50 [3]: 2890 nM; IC50 (SW48 cell line (gastric); read-out: Cytotoxicity SW48 (72 hrs)): 4390 nM; IC50 [4]: 3510 nM
